# Experimental data reported in patent publication US5710145A, “Protein kinase C inhibitor” (priority 1996, dated 1998).
# Counter-ions that a name gives are not always drawn.
# What was measured:
# [1] = Thermogravimetric analysis (TGA) of salts; type: physicochemical; settings: for TGA weight loss 20-100° C.: heated 20-100° C.; for TGA weight loss 100-200° C.: heated 100-200° C.
# Experimental: Each salt was analyzed by TGA, DSC and Mettler hot stage microscopy and compared (Table III). […] The samples were also examined by hot stage microscopy using a Mettler hot stage.
# physchem = type: physicochemical; settings: for pH (saturated aq Solution): saturated aqueous solution
# Experimental: The aqueous solubility of each salt was determined by UV analysis (Table II) and compared. […] The high pH observed with the succinate and acetate salt indicated the presence of untitrated free base.
# [2] = Hygroscopicity of salts at relative humidities; type: physicochemical; settings: for Hygroscopicity, RH 27%: 27% RH; for Hygroscopicity, RH 35%: 35% RH; for Hygroscopicity, RH 65%: 65% RH; for Hygroscopicity, RH 80%: 80% RH
# Experimental: (§1) The salts were examined for hygroscopicity at relative humidities (RH) of 27%, 35%, 65% and 80% and are depicted in Table IV. The samples were subjected to vacuum initially to establish a reference point for the RH data. The amount of water contained in each salt was also determined by Karl-Fisher (coulometric).
# [3] = Karl-Fisher (coulometric) water content of salts; type: physicochemical
# Experimental: as §1
# Protein Kinase C = assay: Protein kinase C inhibitor activity / selectivity (Calcium Calmodulin Dependent Protein Kinase, Casein Protein Kinase II, cAMP-Dependent Protein Kinase Catalytic Subunit and Protein-Tyrosine Kinase assays); type: biochemical
# Experimental: As previously stated, the compound of the present invention are active as selective Protein Kinase C inhibitors. The activity of compound is disclosed in Heath et al., EP 0 657 458, published on Jun. 14, 1995. The activity was determined in the Calcium Calmodulin Dependent Protein Kinase Assay, Casein Protein Kinase II assay, cAMP-Dependent Protein Kinase Catalytic Subunit assay and the Protein-Tyrosine Kinase assay. […] Conditions recognized in the art include: diabetes mellitus and its complications (including retinopathy, neuropathy and nephropathy), ischemia, inflammation, central nervous system disorders, cardiovascular disease, Alzheimer's disease, dermatological disease and cancer.
# [4] = Oral bioavailability of HCl and mesylate salts in dogs, single 20 mg/kg dose, cross-over; type: in vivo, Male Beagle Dogs
# Experimental: Because the hydrochloride salt is the most common pharmaceutical salt and is specifically disclosed in Heath et al., EP 0 657 458, published on Jun. 14, 1995 (Example 5), a biological comparison of the mesylate and HCl salt was carried out. […] The bioavailability of the salt forms was measured in four Male Beagle Dogs by orally administering a single 20 mg/kg dose of the HCl and the claimed mesylate salt in a 10% acacia suspension. One week washout period was allowed between doses. Doses were administered in a cross-over design (2 dogs/salt/study dog). The plasma concentration of the active compound as well as an active metabolite was monitored. […] This represents an approximately 260% increase in plasma concentration of the compound and the metabolite.
# The plasma concentration of the compound as well as the metabolite was also plotted as a function of time during the study. The ratio of the area under the concentration curve (AUC) represents a measure of bioavailability of the compound to the patient. The AUC ratio for the HCl salt and the claimed mesylate was calculated and is depicted in Table VI.
SMILES,TGA weight loss 20-100° C. [1],pH (saturated aq Solution) (physchem),Aqueous solubility (base) (physchem; water),Aqueous solubility (salt) (physchem; water),"Hygroscopicity, RH 27% [2]","Hygroscopicity, RH 35% [2]","Hygroscopicity, RH 65% [2]","Hygroscopicity, RH 80% [2]","Hygroscopicity, Vacuum [2]",K. F. (Karl-Fisher water) [3],TGA weight loss 100-200° C. [1],other results
CN(C)C[C@@H]1CCn2cc(c3ccccc32)C2=C(C(=O)NC2=O)c2cn(c3ccccc23)CCO1 [Phosphate],5.50 % wt loss,3.78,609 μg base/mL H2 O,736 μg salt/mL H2 O,98.6 wt % initial,102.6 wt % initial,105.5 wt % initial,106.6 wt % initial,98.2 wt % initial,4.6%,–,TGA weight loss 20-100° C. ([1]; listed as phosphate): 5.50 % wt loss; hygroscopicity ranking ([2]; vacuum to 80% RH): most hygroscopic
CN(C)C[C@@H]1CCn2cc(c3ccccc32)C2=C(C(=O)NC2=O)c2cn(c3ccccc23)CCO1 [Succinate],0.73 % wt loss,7.72,0.4 μg base/mL H2 O,0.5 μg salt/mL H2 O,98.5 wt % initial,99.1 wt % initial,100.0 wt % initial,100.5 wt % initial,99.3 wt % initial,0.2%,1.90 % wt loss,–
CN(C)C[C@@H]1CCn2cc(c3ccccc32)C2=C(C(=O)NC2=O)c2cn(c3ccccc23)CCO1 [HCl],1.42 % wt loss,4.98,249 μg base/mL H2 O,–,98.2 wt % initial,99.3 wt % initial,100.4 wt % initial,100.6 wt % initial,98.7 wt % initial,1.3%,0.9 % wt loss,aqueous solubility (physchem; water): 268 µg/mL
CN(C)C[C@@H]1CCn2cc(c3ccccc32)C2=C(C(=O)NC2=O)c2cn(c3ccccc23)CCO1 [Tartrate],5.50 % wt loss,3.77,54 μg base/mL H2 O,71 μg salt/mL H2 O,98.2 wt % initial,101.3 wt % initial,103.8 wt % initial,105.4 wt % initial,97.9 wt % initial,5.1%,–,TGA weight loss 20-100° C. ([1]; listed as tartrate): 5.50 % wt loss
CN(C)C[C@@H]1CCn2cc(c3ccccc32)C2=C(C(=O)NC2=O)c2cn(c3ccccc23)CCO1 [Sulfate],5.50 % wt loss,2.57,12 μg base/mL H2 O,14 μg salt/mL H2 O,98.4 wt % initial,99.8 wt % initial,100.9 wt % initial,101.9 wt % initial,98.9 wt % initial,4.9%,–,TGA weight loss 20-100° C. ([1]; listed as sulfate): 5.50 % wt loss
CN(C)C[C@@H]1CCn2cc(c3ccccc32)C2=C(C(=O)NC2=O)c2cn(c3ccccc23)CCO1 [Acetate],0.77 % wt loss,7.80,0.9 μg base/mL H2 O,1 μg salt/mL H2 O,98.6 wt % initial,99.2 wt % initial,100.2 wt % initial,100.6 wt % initial,99.4 wt % initial,0.3%,1.44 % wt loss,–
"CN(C)C[C@@H]1CCn2cc(c3ccccc32)C2=C(C(=O)NC2=O)c2cn(c3ccccc23)CCO1 [Mesylate, (S)-13-[(dimethylamino)methyl]-10,11,14,15-tetrahydro-4,9:16,21-dimetheno-1H, 13H-dibenzo[E,K]pyrrolo[3,4-H][1,4,13]oxadiazacyclohexadecine-1,3(2H)-dione]",3.97 % wt loss,4.69,1460 μg base/mL H2 O,–,98.5 wt % initial,99.4 wt % initial,100.7 wt % initial,104.4 wt % initial,99.0 wt % initial,3.6%,–,"IC50 (Protein Kinase C): < 10 µM; activity and isozyme selectivity (Protein Kinase C): active and isozyme selective; effect of chloride on aqueous solubility (physchem): drops markedly with the addition of chloride; effect of pH on aqueous solubility (physchem): drops markedly at either higher or lower pH; pH of optimal aqueous solubility (physchem): 4.0 to 5.0 pH; aqueous solubility (physchem; water): 1760 µg/mL; solubility (physchem; water, pH 4.5, water, aqueous solubility at most preferred pH): 2250 µg/mL; increase in plasma concentration of the compound and the metabolite ([4]; dog, in vivo, po, 20 mg/kg): approximately 260%; plasma concentrations of compound and metabolite vs HCl salt ([4]; each dog, equivalent oral dose): Higher plasma concentrations"
